Assay: Normal safety test

Q: With `O[C@@H]1CO[C@H]2[C@@H]1OC[C@@H]2O` [isosorbide] as the compound, how does the Normal safety test read?
A: The Normal safety test was “no problem occurred”.

Source: US7964638B2, “Skin cosmetic and wrinkle-reducing agent” (Kao Corporation, priority 2005, dated 2011)
